Earlier results on one compound are cited in patent US4014909A, “Esters of 21-thiol steroids” (priority 1974, dated 1977).

For this data set the following is noted: U.S. Pat. No. 2,814,632; cited from earlier work.

For the compound `CC(=O)SCC(=O)[C@@]1(O)CC[C@H]2[C@@H]3CCC4=CC(=O)C=C[C@]4(C)[C@H]3[C@@H](O)C[C@@]21C` [21-thio-acetate of prednisolone], the Adreno-corticoid activity entry is on record as “possessing an adreno-corticoid activity” and the Diuretic activity entry is listed as “considerable diuretic activity”.
